Experimental data reported in PMC9541495, “Understanding the interaction of 14‐3‐3 proteins with hDMX and hDM2: a structural and biophysical study” (The Febs Journal, 2022).
Where a SMILES comes first, the peptide text is derived from it. [ ]: non-standard residue; d: D form. The star is where a group is joined. 5FAM = O=C1OC2(c3ccc(O)cc3Oc3cc(O)ccc32)c2ccc(C(=O)*)cc21; pS = N[C@@H](COP(=O)(O)O)C(=O)O; Ahx = NCCCCCC(=O)O

Key:
Type in all cases: binding
14‐3‐3 τ = molecular target: T1, 14‐3‐3 τ (Homo sapiens, UniProt P27348); test: Fluorescence anisotropy direct titration, 14‐3‐3τ; conditions: FA direct titration; FAM‐Ahx tracer peptide 50 nM; HEPES/NaCl/Tween 20/BSA pH 7.4; 1:1 fit; n = 3; read-out: K d, 14‐3‐3 τ
T1 construct: full‐length proteins were concentrated by centrifugation, rebuffered in HEPES buffer; made in house; host or cells: E. coli BL21(DE3)
T1 sequence (P27348 1-245): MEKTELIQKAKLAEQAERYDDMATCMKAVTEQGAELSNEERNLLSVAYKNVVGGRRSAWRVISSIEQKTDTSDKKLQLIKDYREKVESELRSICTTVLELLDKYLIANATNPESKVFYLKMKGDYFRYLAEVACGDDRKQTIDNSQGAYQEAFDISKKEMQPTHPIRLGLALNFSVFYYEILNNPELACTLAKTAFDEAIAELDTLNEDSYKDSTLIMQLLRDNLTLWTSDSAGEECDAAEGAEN
Text: (§1) 14‐3‐3 proteins were titrated against a constant concentration of the tracer resulting in an increase of anisotropy upon engaging 14‐3‐3 proteins (Fig. 2A–C for 14‐3‐3 binding hDMX sequences and Figs S4–S6, for 14‐3‐3 binding hDM2 sequences, non‐binding sequence, and unphosphorylated controls). A noteworthy feature of the data is that different maximum anisotropy levels were observed between hDMX or hDM2 peptides and 14‐3‐3 isoforms, indicating different diffusion properties of the fluorophore when bound to the different 14‐3‐3 isoforms. […]
(§2) […]
(§3) All assays were performed in 384 well plates (each experiment was run in triplicates) and data were collected by Perkin Elmer EnVision […] plate reader with excitation at 480 nm (30 nm bandwidth), polarised dichroic mirror at 505 nm and emission at 535 nm (40 nm bandwidth, S and P polarised). […] A ½ fold dilution series was performed in the titration, with plates read after 30 min, 4 h and 20–24 h. […] Total intensity I and anisotropy r were calculated using Equations 1 and 2 for each well. […]

14‐3‐3 σ = molecular target: T2, 14‐3‐3 σ (Homo sapiens, UniProt P31947); test: Fluorescence anisotropy direct titration, 14‐3‐3σ; conditions: FA direct titration; FAM‐Ahx tracer peptide 50 nM; HEPES/NaCl/Tween 20/BSA pH 7.4; 1:1 fit; n = 3; read-out: K d, 14‐3‐3 σ
T2 construct: full‐length proteins were concentrated by centrifugation, rebuffered in HEPES buffer; made in house; host or cells: E. coli BL21(DE3)
T2 sequence (P31947 1-248): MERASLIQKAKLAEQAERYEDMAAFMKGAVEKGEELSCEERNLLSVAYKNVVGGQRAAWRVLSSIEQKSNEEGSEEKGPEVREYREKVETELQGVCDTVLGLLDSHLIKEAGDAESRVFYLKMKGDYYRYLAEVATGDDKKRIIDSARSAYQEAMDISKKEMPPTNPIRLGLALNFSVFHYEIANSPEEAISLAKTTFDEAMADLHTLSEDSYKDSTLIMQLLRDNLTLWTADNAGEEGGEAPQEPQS
Text: as §1, §2, §3

14‐3‐3 ε = molecular target: T3, 14‐3‐3 ε (Homo sapiens, UniProt P62258); test: Fluorescence anisotropy direct titration, 14‐3‐3ε; conditions: FA direct titration; FAM‐Ahx tracer peptide 50 nM; HEPES/NaCl/Tween 20/BSA pH 7.4; 1:1 fit; n = 3; read-out: K d, 14‐3‐3 ε
T3 construct: full‐length proteins were concentrated by centrifugation, rebuffered in HEPES buffer; made in house; host or cells: E. coli BL21(DE3)
T3 sequence (P62258 1-255): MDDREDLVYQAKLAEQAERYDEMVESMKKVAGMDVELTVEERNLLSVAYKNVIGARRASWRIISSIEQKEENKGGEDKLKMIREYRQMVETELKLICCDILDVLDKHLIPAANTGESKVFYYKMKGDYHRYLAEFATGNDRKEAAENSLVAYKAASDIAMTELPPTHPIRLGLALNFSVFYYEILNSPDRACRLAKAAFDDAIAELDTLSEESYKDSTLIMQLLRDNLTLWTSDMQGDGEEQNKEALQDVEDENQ
Text: as §1, §2, §3

## CC[C@H](C)[C@H](NC(=O)[C@H](CO)NC(=O)[C@H](CC(=O)O)NC(=O)[C@H](COP(=O)(O)O)NC(=O)[C@H](CCCCN)NC(=O)[C@H](Cc1c[nH]cn1)NC(=O)[C@H](CCCNC(=N)N)NC(=O)[C@H](CCCCN)NC(=O)[C@H](CCCNC(=N)N)NC(=O)[C@H](CCC(N)=O)NC(=O)CCCCCNC(=O)c1ccc2c(c1)C(=O)OC21c2ccc(O)cc2Oc2cc(O)ccc21)C(=O)N[C@@H](CO)C(=O)N[C@@H](CC(C)C)C(=O)N[C@@H](CO)C(N)=O [hDM2_180‐192 ^pSer186] ({5FAM-Ahx}-QRKRHK[pS]DSISLS-NH2)
14‐3‐3 τ
  Kd: > 250 µM
14‐3‐3 σ
  Kd: > 170 µM
14‐3‐3 ε
  Kd: > 260 µM
